According to patent publication US20120178147A1, “MICROBIAL CULTURES AND METHODS FOR ANAEROBIC BIOREMEDIATION” (priority 2009, published 2012):
Values joined by “and” are separate entries in the source; they are usually repeats but may differ in a detail not shown here. Identical values can stand only once. “Also recorded” adds a separate entry of the source.

How the values were obtained:
BDI cultures = test: TCC and TCS exposure: TCE reductive dechlorination by Bio-Dechlor INOCULUM; type: cell-based; conditions: for TCE completely dechlorinated to ethene in BDI / TCE transformed to VC in BDI: 1.5 μM TCC or 35 μM TCS, by day 27
Method: (§1) Cultures. Two cultures were used in this study: 1) Bio-Dechlor INOCULUM, which was obtained from Dr. Frank Loffler's laboratory at Georgia Tech; 2) DehaloR̂2 culture, developed from a sediment microcosm from the Chesapeake Bay “sediment core-D” with three-times continuous transfers described in Example 1.
(§2) TCC and TCS Exposure. For the TCC and TCS test, 1 ml ATCC mixed vitamin solution (Catalog No. MD-VS), 0.25 ml 20 mg/L vitamin B12 solution and 1 ml 500 mM lactate solution were filtered with a 0.2 μm sterile filter and added to 92.5 ml sterile anaerobic media in 160 ml serum bottles, and then 5 ml of culture was transferred into this fresh media. Lactate served as electron donor and carbon source. Fifty μl TCE stock solutions ([…] in methanol) were injected into the media with 500-μl Hamilton air-tight syringe (Reno, Nev.), and the final TCE concentration was 35 μmol per serum bottle. Ten μl TCC or TCS stock solutions in methanol or pure methanol was injected with 10 μl Hamilton air-tight syringe (Reno, Nev.) into the serum bottle. Three concentration levels of TCC or TCS stock solutions were made and listed in Table 8 to make the three final concentration levels of TCC or TCS. The middle concentration level of TCC and TCS in cultures was set according to the solubility of TCC and TCS at 20° C. The highest concentration of TCC and TCS is 10 times the solubility of TCC and TCS at 20° C., and the lowest concentration of TCC and TCS is 10% the solubility of TCC and TCS at 20° C.
(§3) The total aqueous volume in 160-ml serum bottle was 100 ml. Four BDI and four DehaloR̂2 cultures were generated for each concentration of TCC or TCS, and three of them were used for TCE dechlorination analysis and the other one was used for DNA extractions and molecular analysis. The error bars in the figures are the standard deviations for three independent cultures under the same conditions.
(§4) All cultures were stored in the dark and incubated at 30° C.
(§5) Analytical Methods. The concentrations of TCE and their reductive-dechlorinating byproducts, 1,1-DCE, cis-DCE, trans-DCE, VC, and ethene were quantified by gas chromatography with a flame ionization detector (GC-FID).
(§6) 200 μl headspace gas samples were withdrawn from 160 ml serum bottle with 500 μl gas-tight syringes (Hamilton Company, Reno, Nev.) and analyzed by a Shimadzu GC-2010 (Columbia, Md.) with an Rt™-QSPLOT capillary column (30 m×0.32 mm×10 μm, Restek, Bellefonte, Pa.) and a flame ionization detector (FID). The initial oven temperature was 110° C. and was held constant for 5 min. Then the temperature was raised with a gradient of 10° C./min to 150° C., a second gradient at 20° C./min to 200° C., and a third gradient of 5° C./min to 220° C. At the end of this gradient, the oven temperature was held constant at 220° C. for 5 min. The temperature of FID and injector were 240° C. Ultra high purity helium was the carrier gas for the GC. Ultra high purity hydrogen and zero grade air were used for the FID.
(§7) Calibration curves for chlorinated compounds were determined based on the known mass of PCE, TCE, 1,1-DCE, cis-DCE and trans-DCE added to 160 ml serum bottles containing 100 ml of distilled-deionized water and equilibrated at 25° C. overnight. The contents were then analyzed using the Shimadzu GC-FID. Different volumes of 100 ppm and 1000 ppm VC and ethene gas were injected directly into GC using the 500 μl airtight syringe to make their calibration curves. The aqueous concentrations of PCE, TCE and their reaction products were calculated by using reported Henry's constants on the EPA website (Washington and Weaver, 2006)

DehaloR̂2 cultures = test: TCC and TCS exposure: TCE reductive dechlorination by DehaloR̂2 culture; type: cell-based; conditions: for TCE completely dechlorinated into ethene in the 22-day period in DehaloR̂2: 1.5 μM TCC (32 μmol TCE) or 35 μM TCS
Method: as §1, §2, §3
The TCC and TCS tests on DehaloR̂2 culture were only dosed with the highest and middle concentrations of TCC and TCS, which are 1.5 μM TCC, 0.15 μM TCC, 35 μM TCS and 3.5 μM TCS, respectively.
as §4, §5, §6, §7

[1] = highest level: 1.5 μM TCC or 35 μM TCS
[2] = lowest level: 0.015 μM TCC or 0.35 μM TCS
[3] = middle level: 0.15 μM TCC or 3.5 μM TCS

Structure (SMILES)	TCE completely dechlorinated to ethene in BDI (BDI cultures)	TCE transformed to VC in BDI (BDI cultures) [%]	Maximum formation rate VC in BDI (BDI cultures; [1]) [μmol vial^−1 day^−1]	Maximum formation rate cis-DCE in BDI (BDI cultures; [1]) [μmol vial^−1 day^−1]	Maximum utilization rate TCE in BDI (BDI cultures; [1]) [μmol vial^−1 day^−1]	Maximum utilization rate cis-DCE in BDI (BDI cultures; [1]) [μmol vial^−1 day^−1]	effect on TCE reductive dechlorination in BDI cultures (BDI cultures; [1])	Maximum formation rate Ethene in BDI (BDI cultures; [2]) [μmol vial^−1 day^−1]	Maximum formation rate VC in BDI (BDI cultures; [2]) [μmol vial^−1 day^−1]	Maximum formation rate cis-DCE in BDI (BDI cultures; [2]) [μmol vial^−1 day^−1]	Maximum utilization rate TCE in BDI (BDI cultures; [2]) [μmol vial^−1 day^−1]	Maximum utilization rate VC in BDI (BDI cultures; [2]) [μmol vial^−1 day^−1]	Maximum utilization rate cis-DCE in BDI (BDI cultures; [2]) [μmol vial^−1 day^−1]	effect on TCE reductive dechlorination in BDI cultures (BDI cultures; [2])	Maximum formation rate Ethene in BDI (BDI cultures; [3]) [μmol vial^−1 day^−1]	Maximum formation rate VC in BDI (BDI cultures; [3]) [μmol vial^−1 day^−1]	Maximum formation rate cis-DCE in BDI (BDI cultures; [3]) [μmol vial^−1 day^−1]	Maximum utilization rate TCE in BDI (BDI cultures; [3]) [μmol vial^−1 day^−1]	Maximum utilization rate VC in BDI (BDI cultures; [3]) [μmol vial^−1 day^−1]	Maximum utilization rate cis-DCE in BDI (BDI cultures; [3])	other results
O=C(Nc1ccc(Cl)cc1)Nc1ccc(Cl)c(Cl)c1 [TCC, 3-(4-chlorophenyl)-1-(3,4-dichlorphenyl) urea]	10%	90	1.65	3.94	4.22	1.29	significantly inhibited TCE reductive dechlorination	2.32	1.11	7.98	9.23	1.35	2.99	had no influence on TCE reductive dechlorination; also recorded: did not show any obvious effect	3.3	1.38	7.04	7.47	0.33	2.6 μmol vial^−1 day^−1	Maximum formation rate Ethene in BDI (BDI cultures; highest level: 1.5 μM TCC): 0.19 μmol vial^−1 day^−1; effect on TCE reductive dechlorination in BDI cultures (BDI cultures; [3]): did not show any obvious effect; time for complete TCE reductive dechlorination in DehaloR̂2 (DehaloR̂2 cultures; 0.15 μM TCC): approximately 22 days; time for reductive dechlorination of 80% of 33 μmol TCE into ethene in DehaloR̂2 (DehaloR̂2 cultures; 0.15 μM TCC): 11 days; time for reductive dechlorination of TCE to cis-DCE in DehaloR̂2 (DehaloR̂2 cultures; 1.5 μM TCC): about 4 days; TCE completely dechlorinated into ethene in the 22-day period in DehaloR̂2 (DehaloR̂2 cultures): About 46%; Maximum formation rate Ethene in DehaloR̂2 (SCD) (DehaloR̂2 cultures; highest level: 1.5 μM TCC): 1.08 μmol vial^−1 day^−1; Maximum utilization rate VC in DehaloR̂2 (SCD) (DehaloR̂2 cultures; highest level: 1.5 μM TCC): 1.48 μmol vial^−1 day^−1; Maximum utilization rate cis-DCE in DehaloR̂2 (SCD) (DehaloR̂2 cultures; highest level: 1.5 μM TCC): 9.55 μmol vial^−1 day^−1; Maximum formation rate VC in DehaloR̂2 (SCD) (DehaloR̂2 cultures; [1]): 8.12 μmol vial^−1 day^−1; Maximum formation rate cis-DCE in DehaloR̂2 (SCD) (DehaloR̂2 cultures; [1]): 12.83 μmol vial^−1 day^−1; Maximum utilization rate TCE in DehaloR̂2 (SCD) (DehaloR̂2 cultures; [1]): 9.54 μmol vial^−1 day^−1; effect on TCE reductive dechlorination in DehaloR̂2 cultures (DehaloR̂2 cultures; [1]): significantly inhibited TCE reductive dechlorination; Maximum formation rate Ethene in DehaloR̂2 (SCD) (DehaloR̂2 cultures; [3]): 8.54 μmol vial^−1 day^−1; Maximum formation rate VC in DehaloR̂2 (SCD) (DehaloR̂2 cultures; [3]): 6.72 μmol vial^−1 day^−1; Maximum formation rate cis-DCE in DehaloR̂2 (SCD) (DehaloR̂2 cultures; [3]): 23.87 μmol vial^−1 day^−1; Maximum utilization rate TCE in DehaloR̂2 (SCD) (DehaloR̂2 cultures; [3]): 20.45 μmol vial^−1 day^−1; Maximum utilization rate VC in DehaloR̂2 (SCD) (DehaloR̂2 cultures; [3]): 6.01 μmol vial^−1 day^−1; Maximum utilization rate cis-DCE in DehaloR̂2 (SCD) (DehaloR̂2 cultures; [3]): 6.40 μmol vial^−1 day^−1; effect on TCE reductive dechlorination in DehaloR̂2 cultures (DehaloR̂2 cultures; [3]): slowed down the TCE reductive dechlorination process
Oc1cc(Cl)ccc1Oc1ccc(Cl)cc1Cl [TCS, 5-chloro-2-[2,4-dichloro-phenoxy]-phenol]	no ethene was produced	7	1.21	6.41	8.75	0.11	significantly inhibited TCE reductive dechlorination	2.61	1.14	6.69	9.58	1.14	2.72	had no influence on TCE reductive dechlorination; also recorded: did not show any obvious effect	3.95	1.54	7.24	9.36	0.62	2.39 μmol vial^−1 day^−1 and 2.4 μmol vial^−1 day^−1	VC produced in BDI (BDI cultures; 35 μM TCS): 3.6 µmol; TCE not dechlorinated in BDI (BDI cultures; 35 μM TCS, 27-day experiment): approximately 9%; TCE transformed to cis-DCE in BDI (BDI cultures; 35 μM TCS, within 27 days): 84%; effect on TCE reductive dechlorination in BDI cultures (BDI cultures; [3]): did not show any obvious effect; TCE completely dechlorinated into ethene in the 22-day period in DehaloR̂2 (DehaloR̂2 cultures): no ethene was produced; time for TCE reductive dechlorination to cis-DCE in DehaloR̂2 (DehaloR̂2 cultures; 3.5 μM TCS): about 4 days; TCE completely dechlorinated into ethene at the 18th day in DehaloR̂2 (DehaloR̂2 cultures; 3.5 μM TCS, 34 μmol TCE): 79%; TCE transformed into VC within 22 days in DehaloR̂2 (DehaloR̂2 cultures; 35 μM TCS): 1%; Maximum formation rate VC in DehaloR̂2 (SCD) (DehaloR̂2 cultures; [1]): 0.11 μmol vial^−1 day^−1; Maximum formation rate cis-DCE in DehaloR̂2 (SCD) (DehaloR̂2 cultures; [1]): 5.59 μmol vial^−1 day^−1; Maximum utilization rate TCE in DehaloR̂2 (SCD) (DehaloR̂2 cultures; [1]): 5.90 μmol vial^−1 day^−1; effect on TCE reductive dechlorination in DehaloR̂2 cultures (DehaloR̂2 cultures; [1]): significantly inhibited TCE reductive dechlorination; Maximum formation rate Ethene in DehaloR̂2 (SCD) (DehaloR̂2 cultures; [3]): 3.11 μmol vial^−1 day^−1; Maximum formation rate VC in DehaloR̂2 (SCD) (DehaloR̂2 cultures; [3]): 8.99 μmol vial^−1 day^−1; Maximum formation rate cis-DCE in DehaloR̂2 (SCD) (DehaloR̂2 cultures; [3]): 8.79 μmol vial^−1 day^−1; Maximum utilization rate TCE in DehaloR̂2 (SCD) (DehaloR̂2 cultures; [3]): 13.47 μmol vial^−1 day^−1; Maximum utilization rate VC in DehaloR̂2 (SCD) (DehaloR̂2 cultures; [3]): 1.96 μmol vial^−1 day^−1; Maximum utilization rate cis-DCE in DehaloR̂2 (SCD) (DehaloR̂2 cultures; [3]): 9.10 μmol vial^−1 day^−1; effect on TCE reductive dechlorination in DehaloR̂2 cultures (DehaloR̂2 cultures; [3]): slowed down the TCE reductive dechlorination process
